Assay results reported in ChEMBL document CHEMBL1201862, “PubChem BioAssay data set” (2004).
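Method: 48-hour compound exposure of cells in 96-well plates, five concentrations, linear interpolation of endpoints. GI50: concentration for 50% inhibition of growth.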 The source made the active and inactive calls. No stated cut-off is given here; in the data, active = GI50 up to about 1.1 µM and inactive = higher.

Key:
Experiment in all cases: inhibition of tumour cell growth, NCI panel, 48 h
[1] = test system: Malme-3M
[2] = test system: SK-OV-3
[3] = test system: MDA-MB-231
[4] = test system: HOP-62
[5] = test system: HT-29
[6] = test system: SN12C
[7] = test system: T47D
[8] = test system: SR
[9] = test system: 786-0
[10] = test system: OVCAR-4
[11] = test system: DU-145
[12] = test system: SF-268
[13] = test system: SF-295
[14] = test system: TK-10
[15] = test system: U-251
[16] = test system: UO-31
[17] = test system: HL-60
[18] = test system: MDA-MB-435
[19] = test system: SNB-75
[20] = test system: HCC 2998

Measured: GI50

Cc1cnc2nc(-c3ccc(F)cc3)cc(O)c2c1
inactive: [1] 33.9 µM | [2] 21.6 µM | [3] > 73.1 µM | [4] 37.5 µM | [5] 26.4 µM | [6] 67.6 µM | [7] 39.2 µM | [8] 5.14 µM | [9] 32.5 µM | [10] 48.6 µM | [11] 43 µM | [12] 67.9 µM | [13] 25.9 µM | [14] 48 µM | [15] 23.1 µM | [16] 48.2 µM | [17] 3.26 µM | [18] 2.81 µM | [19] 20.1 µM | [20] 43.5 µM

CCCCCCCCCCCCCCCCNc1ccc2c(c1)OCCOCCOCCOCCO2
inactive: [1] 3.56 µM | [2] 3.4 µM | [3] 2.91 µM | [4] 2.51 µM | [5] 2.75 µM | [6] 2.92 µM | [7] 3.11 µM | [8] 3.29 µM | [9] 3.64 µM | [10] 4.02 µM | [11] 4.24 µM | [12] 3.76 µM | [13] 2.33 µM | [14] 11.7 µM | [15] 2.49 µM | [16] 2.77 µM | [17] 2.07 µM | [18] 3.17 µM | [19] 3.92 µM | [20] 4.03 µM

Nc1ccc2nc3ccc(N)cc3[n+](-c3ccccc3)c2c1
inactive: [1] 18.6 µM | [2] > 100 µM | [3] 63.8 µM | [4] 43.3 µM | [5] 21.2 µM | [6] 25.4 µM | [7] 7.78 µM | [8] 98.6 µM | [9] 95.7 µM | [10] > 100 µM | [11] 68.2 µM | [12] 29 µM | [13] 33.3 µM | [14] > 100 µM | [15] 38.5 µM | [16] > 100 µM | [17] > 100 µM | [18] 50.4 µM | [19] 42.1 µM | [20] > 100 µM

CC1=CC=CC(C)(C)CC1(O[Si](C)(C)C)C(F)(F)F (stereo not given)
inactive: [1] > 100 µM | [2] > 100 µM | [3] > 100 µM | [4] > 100 µM | [5] 46.8 µM | [6] > 100 µM | [7] > 100 µM | [8] > 100 µM | [9] > 100 µM | [10] > 100 µM | [11] > 100 µM | [12] > 100 µM | [13] > 100 µM | [14] > 100 µM | [15] 98.9 µM | [16] > 100 µM | [17] 28.9 µM | [18] > 100 µM | [19] > 100 µM | [20] > 100 µM

Cc1c(C)c2c(c(N)c1C#N)C(=O)N(Cc1ccc(S(N)(=O)=O)cc1)C2=O
inactive: [1] 20.5 µM | [2] 4.43 µM | [3] 19.7 µM | [4] 4.07 µM | [5] > 100 µM | [6] > 53.8 µM | [7] > 39.2 µM | [8] > 100 µM | [9] 16.8 µM | [10] > 100 µM | [11] 32.1 µM | [12] 16.5 µM | [13] 21.5 µM | [14] 22.4 µM | [15] 7.18 µM | [16] 97.9 µM | [17] > 100 µM | [18] > 100 µM | [19] > 35.9 µM | [20] > 100 µM

CC(C)N(C(C)C)S(=O)(=O)CC12CCC(C/C1=N\O)C2 (stereo not given)
inactive: [1] > 100 µM | [2] > 100 µM | [3] > 100 µM | [4] > 100 µM | [5] > 100 µM | [6] > 100 µM | [7] > 100 µM | [8] > 100 µM | [9] > 100 µM | [10] > 100 µM | [11] > 100 µM | [12] > 100 µM | [13] > 100 µM | [14] > 100 µM | [15] > 100 µM | [16] > 100 µM | [17] > 100 µM | [18] > 100 µM | [19] > 100 µM | [20] > 100 µM

O=C1C=C(Nc2ccccc2C(=O)CC(=O)C(=O)Nc2cccc(C(F)(F)F)c2)c2ccccc2C1=O
inactive: [1] 15.1 µM | [2] 61.4 µM | [3] 20 µM | [4] 40 µM | [5] 57.4 µM | [6] 17.1 µM | [7] > 100 µM | [8] 8.85 µM | [9] 25.8 µM | [10] 17.9 µM | [11] 78 µM | [12] 17.2 µM | [13] 21.3 µM | [14] > 96.4 µM | [15] 31.3 µM | [16] 31.2 µM | [17] 4.94 µM | [18] 7.5 µM | [19] 50.4 µM | [20] > 41.8 µM
